From patent US4395400A, “Nonapeptide, a process for its preparation, an agent containing it and its use” (Hoechst Aktiengesellschaft, priority 1980, dated 1983)

How the values were obtained:
[1] = tested on: gonadoliberin biological action; conditions: D-aminoacid in position 6 with tert.-butyl type protective group; cited from earlier work
[2] = absorption from the gastro-intestinal tract; format: in vivo; conditions: humans
Method: The preferred method of administration in humans is intranasal administration, since absorption of the compound from the gastro-intestinal tract is only slight and parenteral administration is inappropriate for the patient. About 0.1 ml of a buffer solution, in which the necessary quantity of the active compound is dissolved, is sprayed into the nose via a spray jet, by means of a dosing atomizer.

[3] = solubility in aqueous buffer solutions; format: physicochemical
Description: This makes the compound suitable for intranasal administration, for which, as shown by experience, solubility can be the limiting factor.

Compound	biological action of position-6 substituted gonadoliberin derivative [1]	absorption from the gastro-intestinal tract [2]	solubility in aqueous buffer solutions ([3]; aqueous buffer solutions)	solubility compared with other gonadoliberin analogs ([3]; versus analogs of comparable effectiveness, particularly the D-Trp^6 or D-His(Bzl)^6 analogs)
CC(C)(C)OC[C@@H](N)C(=O)O [O-tert.-butyl-D-serine]	strongest biological action	–	–	–
CCNC(=O)[C@@H]1CCCN1C(=O)[C@H](CCCNC(=N)N)NC(=O)[C@H](CC(C)C)NC(=O)[C@@H](CCCC(=O)OC(C)(C)C)NC(=O)[C@H](Cc1ccc(O)cc1)NC(=O)[C@H](CO)NC(=O)[C@H](Cc1c[nH]c2ccccc12)NC(=O)[C@H](Cc1c[nH]cn1)NC(=O)[C@@H]1CCC(=O)N1 [nonapeptide]	–	only slight	good solubility	appreciably greater
